Assay results reported in ChEMBL document CHEMBL1201862, “PubChem BioAssay data set” (2004).
The source made the active and inactive calls.

Key:
[1] = target: T1, Calpain-2 catalytic subunit (Sus scrofa, UniProt P43367); assay: pig calpain II inhibitor potency, dose response, biochemical, fluorogenic peptide substrate (AID 1420); format: functional
T1 sequence (P43367 whole entry): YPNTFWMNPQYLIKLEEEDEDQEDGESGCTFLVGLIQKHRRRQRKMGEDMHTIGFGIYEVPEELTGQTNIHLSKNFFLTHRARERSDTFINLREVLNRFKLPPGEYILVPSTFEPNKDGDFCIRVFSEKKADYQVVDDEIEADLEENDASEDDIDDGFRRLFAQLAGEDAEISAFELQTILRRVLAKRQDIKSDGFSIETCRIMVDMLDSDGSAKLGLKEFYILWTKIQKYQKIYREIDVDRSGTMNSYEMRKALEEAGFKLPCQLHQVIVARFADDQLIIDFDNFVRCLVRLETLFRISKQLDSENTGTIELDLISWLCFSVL

[2] = target: Cytochrome P450 2D6 (Homo sapiens, UniProt P10635);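 also: CYP2D6 member of a cytochrome P450 panel assay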
Cytochrome P450 2D6, sequence (P10635 whole entry): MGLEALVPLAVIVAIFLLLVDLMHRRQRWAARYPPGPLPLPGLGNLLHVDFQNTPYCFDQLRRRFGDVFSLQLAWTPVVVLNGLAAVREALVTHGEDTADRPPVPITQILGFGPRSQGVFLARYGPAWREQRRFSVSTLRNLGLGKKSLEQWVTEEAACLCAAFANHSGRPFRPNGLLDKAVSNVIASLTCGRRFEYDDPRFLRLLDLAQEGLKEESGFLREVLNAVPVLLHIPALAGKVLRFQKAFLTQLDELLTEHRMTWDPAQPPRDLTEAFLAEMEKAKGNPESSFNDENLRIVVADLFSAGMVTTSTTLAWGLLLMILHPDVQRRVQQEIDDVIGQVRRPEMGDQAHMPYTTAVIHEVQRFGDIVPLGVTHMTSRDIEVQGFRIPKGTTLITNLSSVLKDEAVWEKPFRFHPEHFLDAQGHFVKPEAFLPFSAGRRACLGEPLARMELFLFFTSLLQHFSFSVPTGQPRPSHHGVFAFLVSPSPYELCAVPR

[3] = target: T2, Cytochrome P450 1A2 (Homo sapiens, UniProt P05177);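 also: PubChem cytochrome P450 panel assay, CYP1A2 panel member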
T2 sequence (P05177 whole entry): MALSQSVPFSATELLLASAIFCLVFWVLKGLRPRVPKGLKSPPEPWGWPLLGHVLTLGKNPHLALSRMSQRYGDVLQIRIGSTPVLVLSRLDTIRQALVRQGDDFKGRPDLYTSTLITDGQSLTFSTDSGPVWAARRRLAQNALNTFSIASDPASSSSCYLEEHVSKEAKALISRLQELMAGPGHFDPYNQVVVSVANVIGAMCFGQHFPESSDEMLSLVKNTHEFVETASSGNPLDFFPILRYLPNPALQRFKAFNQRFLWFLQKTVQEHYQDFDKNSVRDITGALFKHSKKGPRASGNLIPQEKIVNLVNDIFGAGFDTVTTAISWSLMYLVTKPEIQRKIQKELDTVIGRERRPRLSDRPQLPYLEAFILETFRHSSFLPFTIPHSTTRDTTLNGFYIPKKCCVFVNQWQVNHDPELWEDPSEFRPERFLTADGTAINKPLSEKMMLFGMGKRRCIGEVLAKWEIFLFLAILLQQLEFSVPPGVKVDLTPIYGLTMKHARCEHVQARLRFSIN

[4] = target: Cytochrome P450 3A4 (Homo sapiens, UniProt P08684);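 also: CYP3A4 tested as one member of a cytochrome P450 panel screen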
Cytochrome P450 3A4, sequence (P08684 whole entry): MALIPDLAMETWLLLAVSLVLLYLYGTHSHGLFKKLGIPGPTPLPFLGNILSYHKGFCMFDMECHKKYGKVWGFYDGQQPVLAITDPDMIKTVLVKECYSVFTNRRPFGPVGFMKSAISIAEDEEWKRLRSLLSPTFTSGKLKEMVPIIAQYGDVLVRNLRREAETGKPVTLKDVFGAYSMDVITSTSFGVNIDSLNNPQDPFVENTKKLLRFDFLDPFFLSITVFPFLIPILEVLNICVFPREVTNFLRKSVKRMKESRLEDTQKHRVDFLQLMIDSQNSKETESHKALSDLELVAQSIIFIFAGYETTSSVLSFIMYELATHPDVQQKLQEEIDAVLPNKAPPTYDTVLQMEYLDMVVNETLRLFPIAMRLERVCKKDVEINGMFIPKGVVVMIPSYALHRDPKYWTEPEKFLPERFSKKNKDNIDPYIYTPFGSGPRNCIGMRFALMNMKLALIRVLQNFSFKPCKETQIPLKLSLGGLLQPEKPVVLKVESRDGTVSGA

[5] = target: Cytochrome P450 2C9 (Homo sapiens, UniProt P11712)
Cytochrome P450 2C9, sequence (P11712 whole entry): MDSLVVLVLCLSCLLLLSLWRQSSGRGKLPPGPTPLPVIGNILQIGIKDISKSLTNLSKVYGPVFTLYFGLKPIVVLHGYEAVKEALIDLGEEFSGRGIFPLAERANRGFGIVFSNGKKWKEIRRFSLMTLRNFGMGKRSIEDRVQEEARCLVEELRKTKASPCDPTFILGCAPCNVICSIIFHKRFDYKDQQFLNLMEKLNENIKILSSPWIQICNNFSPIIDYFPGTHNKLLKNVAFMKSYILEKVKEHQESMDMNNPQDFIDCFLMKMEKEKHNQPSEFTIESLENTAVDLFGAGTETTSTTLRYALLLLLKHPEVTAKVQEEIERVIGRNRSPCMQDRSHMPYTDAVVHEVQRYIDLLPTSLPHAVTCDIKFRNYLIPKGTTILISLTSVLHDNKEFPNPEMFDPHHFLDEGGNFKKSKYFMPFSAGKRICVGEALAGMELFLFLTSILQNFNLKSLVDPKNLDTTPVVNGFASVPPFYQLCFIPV

[6] = target: Voltage-dependent T-type calcium channel subunit alpha-1H (Homo sapiens, UniProt O95180); format: functional;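 also: channel activity triggered by adding a high calcium stimulation buffer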
Voltage-dependent T-type calcium channel subunit alpha-1H, sequence (O95180 whole entry): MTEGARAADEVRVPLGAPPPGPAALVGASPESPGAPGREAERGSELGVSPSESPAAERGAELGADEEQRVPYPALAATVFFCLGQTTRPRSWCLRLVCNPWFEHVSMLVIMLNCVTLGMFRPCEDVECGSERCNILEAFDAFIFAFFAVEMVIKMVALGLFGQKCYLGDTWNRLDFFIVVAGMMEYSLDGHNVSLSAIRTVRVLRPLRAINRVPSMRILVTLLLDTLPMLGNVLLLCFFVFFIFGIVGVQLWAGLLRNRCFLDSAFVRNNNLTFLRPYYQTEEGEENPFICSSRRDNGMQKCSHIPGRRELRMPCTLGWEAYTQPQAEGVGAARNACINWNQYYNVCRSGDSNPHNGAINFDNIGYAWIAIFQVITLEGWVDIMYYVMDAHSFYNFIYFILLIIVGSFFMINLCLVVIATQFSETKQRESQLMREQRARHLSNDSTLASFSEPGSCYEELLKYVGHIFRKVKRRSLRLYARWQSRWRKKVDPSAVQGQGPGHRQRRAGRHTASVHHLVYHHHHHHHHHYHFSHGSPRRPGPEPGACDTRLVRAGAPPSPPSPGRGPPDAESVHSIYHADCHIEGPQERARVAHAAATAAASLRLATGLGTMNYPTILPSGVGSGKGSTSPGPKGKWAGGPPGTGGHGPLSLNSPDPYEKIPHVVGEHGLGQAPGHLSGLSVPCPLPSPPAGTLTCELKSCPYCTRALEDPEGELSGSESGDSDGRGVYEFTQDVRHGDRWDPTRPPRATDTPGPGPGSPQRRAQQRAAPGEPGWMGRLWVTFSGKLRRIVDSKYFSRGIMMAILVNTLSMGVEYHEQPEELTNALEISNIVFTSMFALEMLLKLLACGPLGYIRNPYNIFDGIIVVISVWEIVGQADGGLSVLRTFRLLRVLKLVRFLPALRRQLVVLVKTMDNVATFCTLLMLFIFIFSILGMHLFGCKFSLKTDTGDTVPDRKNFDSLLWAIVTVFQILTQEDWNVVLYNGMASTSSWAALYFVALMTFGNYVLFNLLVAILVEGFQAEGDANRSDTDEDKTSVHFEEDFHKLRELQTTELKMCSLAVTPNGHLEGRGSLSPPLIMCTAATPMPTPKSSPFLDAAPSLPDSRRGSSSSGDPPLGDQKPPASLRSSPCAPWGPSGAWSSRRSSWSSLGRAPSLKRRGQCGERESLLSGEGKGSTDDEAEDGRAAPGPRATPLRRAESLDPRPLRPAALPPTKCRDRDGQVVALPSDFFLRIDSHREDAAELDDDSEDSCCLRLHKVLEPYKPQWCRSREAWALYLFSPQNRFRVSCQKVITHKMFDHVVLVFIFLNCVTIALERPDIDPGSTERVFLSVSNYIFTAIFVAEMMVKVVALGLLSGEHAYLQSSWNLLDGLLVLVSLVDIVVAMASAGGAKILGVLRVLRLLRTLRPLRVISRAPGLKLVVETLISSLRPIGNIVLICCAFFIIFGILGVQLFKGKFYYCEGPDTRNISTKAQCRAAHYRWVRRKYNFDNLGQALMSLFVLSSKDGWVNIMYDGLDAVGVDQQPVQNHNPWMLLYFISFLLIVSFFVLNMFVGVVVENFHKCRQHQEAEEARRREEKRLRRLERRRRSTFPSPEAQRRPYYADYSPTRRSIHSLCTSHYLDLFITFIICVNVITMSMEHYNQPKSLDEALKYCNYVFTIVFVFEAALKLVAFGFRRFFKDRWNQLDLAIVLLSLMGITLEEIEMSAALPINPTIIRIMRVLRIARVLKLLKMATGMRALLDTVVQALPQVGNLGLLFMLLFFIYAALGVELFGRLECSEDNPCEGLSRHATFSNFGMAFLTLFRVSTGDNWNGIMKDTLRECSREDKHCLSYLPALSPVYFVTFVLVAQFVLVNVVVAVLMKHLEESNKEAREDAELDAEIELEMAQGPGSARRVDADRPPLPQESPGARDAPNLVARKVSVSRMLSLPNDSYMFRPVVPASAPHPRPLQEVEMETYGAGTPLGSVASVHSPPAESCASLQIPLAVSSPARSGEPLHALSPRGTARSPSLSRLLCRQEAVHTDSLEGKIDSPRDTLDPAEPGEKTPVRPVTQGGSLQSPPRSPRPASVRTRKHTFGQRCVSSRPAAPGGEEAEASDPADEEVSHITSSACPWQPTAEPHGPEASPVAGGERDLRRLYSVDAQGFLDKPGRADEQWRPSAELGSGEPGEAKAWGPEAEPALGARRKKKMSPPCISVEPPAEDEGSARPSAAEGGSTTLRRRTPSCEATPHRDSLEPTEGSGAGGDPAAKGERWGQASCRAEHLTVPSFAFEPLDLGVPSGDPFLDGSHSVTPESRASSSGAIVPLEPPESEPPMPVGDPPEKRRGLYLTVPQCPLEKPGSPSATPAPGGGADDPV

[7] = target: T3, High affinity choline transporter 1 (Homo sapiens, UniProt Q9GZV3); assay: CHT inhibitors, dose response, cell-based, 5-point CRC, membrane potential dye (AID 504840); format: functional
T3 sequence (Q9GZV3 whole entry): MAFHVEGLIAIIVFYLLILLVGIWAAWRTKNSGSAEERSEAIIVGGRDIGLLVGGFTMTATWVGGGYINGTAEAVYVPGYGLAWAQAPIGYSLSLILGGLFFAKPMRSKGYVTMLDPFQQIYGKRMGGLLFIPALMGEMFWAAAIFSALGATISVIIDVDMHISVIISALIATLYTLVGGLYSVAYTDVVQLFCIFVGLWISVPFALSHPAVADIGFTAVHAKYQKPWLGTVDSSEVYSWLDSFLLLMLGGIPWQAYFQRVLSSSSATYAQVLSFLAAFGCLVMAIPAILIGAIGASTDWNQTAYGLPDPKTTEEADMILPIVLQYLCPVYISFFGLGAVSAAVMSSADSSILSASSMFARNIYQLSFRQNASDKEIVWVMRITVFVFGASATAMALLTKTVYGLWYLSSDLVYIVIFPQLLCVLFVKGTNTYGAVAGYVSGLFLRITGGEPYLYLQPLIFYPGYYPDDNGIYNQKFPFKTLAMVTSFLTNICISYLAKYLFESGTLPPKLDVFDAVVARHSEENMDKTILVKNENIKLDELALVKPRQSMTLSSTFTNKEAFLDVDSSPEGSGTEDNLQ

[8] = target: T3, High affinity choline transporter 1; assay: CHT inhibitors, dose response, cell-based, 10-point CRC, membrane potential dye (AID 588401); format: functional;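 also: membrane potential dye fluorescence of choline-evoked depolarization via CHT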
[9] = inhibitors of intracellular T. cruzi replication, confirmation, NIH3T3 host cells, beta-gal luminescence (AID 2044); format: functional, cell-based;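 also: intracellular parasites grown in NIH/3T3 mouse fibroblasts as host cells; luminescent beta-galactosidase reporter signal from transgenic T. cruzi replicating inside host cells; inhibitors lower the luminescence signal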
[10] = cytotoxicity toward NIH3T3 fibroblasts, dose response, counter-screen, cell-based, ATP luminescence, mouse fibroblasts (AID 2010); format: functional;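 also: cells exposed to compound for about 90 hours before reading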
[11] = inhibitors of firefly luciferase expression or activity, dose response, H4 neuroglioma cells, luminescence (AID 1990); format: functional, cell-based
[12] = cells; format: functional, cell-based
[13] = Luminescence Cell-Based Dose Response HTS to Identify Inhibitors of 5'UTR Stem-Loop Driven Prion Protein mRNA Translation in H4 Neuroglioblastoma Cells. [Related pubchem assays: 1827 (Project Summary), 1813 (Primary HTS)]; format: functional
[14] = inhibitors of SNCA 5'UTR-driven reporter translation, confirmation, H4 neuroglioma cells, luminescence (AID 1988); format: functional, cell-based
[15] = cells; format: functional, cell-based; remark: listed apart in the source
[16] = A549 cell cytotoxicity, dose response, cytotoxicity control, plate reader, cherry-pick, antagonist series (AID 743412); format: functional, cell-based
[17] = LGR2 antagonists, dose response, cell-based, HEK293, CRE-luciferase reporter, cherry pick, set 2 (AID 743343); format: functional;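 also: transfected cells were stimulated with diluted bursicon conditioned medium after compound addition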
[18] = MC4R antagonists, dose response, counter-screen for LGR2 antagonist project, cell-based, plate reader, cherry pick (AID 743444); format: functional;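 also: transfected HEK 293 cells stimulated with alpha-MSH peptide; potency of inhibitors of the alpha-MSH evoked signal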
[19] = HEK293 cell cytotoxicity, dose response, cytotoxicity control, plate reader, cherry-picked samples (AID 743446); format: functional, cell-based
[20] = target: T4, Long-chain-fatty-acid--AMP ligase FadD28 (Mycobacterium tuberculosis, UniProt P9WQ59); assay: Fluorescence polarization aasay to screen for inhibitors that compete for the binding of FadD28 to a bisubstrate Measured in Biochemical System Using Plate Reader - 2147-01_Inhibitor_Dose_CherryPick_Activity.; format: functional, Mycobacterium tuberculosis H37Rv
T4 sequence (P9WQ59 whole entry): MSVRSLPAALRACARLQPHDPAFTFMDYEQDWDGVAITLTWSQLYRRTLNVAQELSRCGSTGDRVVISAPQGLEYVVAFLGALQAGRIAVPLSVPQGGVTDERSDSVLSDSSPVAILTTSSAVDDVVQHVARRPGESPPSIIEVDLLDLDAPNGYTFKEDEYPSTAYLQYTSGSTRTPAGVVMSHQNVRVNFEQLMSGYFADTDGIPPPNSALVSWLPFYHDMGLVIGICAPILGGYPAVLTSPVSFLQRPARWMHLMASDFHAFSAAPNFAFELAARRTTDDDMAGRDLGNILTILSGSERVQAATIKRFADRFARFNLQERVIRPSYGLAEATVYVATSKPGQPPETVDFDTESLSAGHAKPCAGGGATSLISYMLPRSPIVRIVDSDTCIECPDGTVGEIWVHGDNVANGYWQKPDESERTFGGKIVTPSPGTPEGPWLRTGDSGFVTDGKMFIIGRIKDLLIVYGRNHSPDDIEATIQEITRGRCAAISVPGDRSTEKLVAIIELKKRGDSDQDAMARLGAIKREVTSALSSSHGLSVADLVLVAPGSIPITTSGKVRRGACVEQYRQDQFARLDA

[21] = HEp-2 cell cytotoxicity, dose response, cytotoxicity control for RSV inhibitor project, HTS (AID 2410); format: functional; conditions: human respiratory syncytial virus
[22] = target: T5, Polyadenylate-binding protein 1 (Homo sapiens, UniProt P11940); assay: PABP1 MLLE–PAM2 interaction inhibitors, dose response, miRNA deadenylation inhibitor project, biochemical, fluorescence polarization, Cy5-PAM2 peptide, secondary (AID 602260); format: functional; conditions: read-out: IC50_Mean
T5 sequence (P11940 whole entry): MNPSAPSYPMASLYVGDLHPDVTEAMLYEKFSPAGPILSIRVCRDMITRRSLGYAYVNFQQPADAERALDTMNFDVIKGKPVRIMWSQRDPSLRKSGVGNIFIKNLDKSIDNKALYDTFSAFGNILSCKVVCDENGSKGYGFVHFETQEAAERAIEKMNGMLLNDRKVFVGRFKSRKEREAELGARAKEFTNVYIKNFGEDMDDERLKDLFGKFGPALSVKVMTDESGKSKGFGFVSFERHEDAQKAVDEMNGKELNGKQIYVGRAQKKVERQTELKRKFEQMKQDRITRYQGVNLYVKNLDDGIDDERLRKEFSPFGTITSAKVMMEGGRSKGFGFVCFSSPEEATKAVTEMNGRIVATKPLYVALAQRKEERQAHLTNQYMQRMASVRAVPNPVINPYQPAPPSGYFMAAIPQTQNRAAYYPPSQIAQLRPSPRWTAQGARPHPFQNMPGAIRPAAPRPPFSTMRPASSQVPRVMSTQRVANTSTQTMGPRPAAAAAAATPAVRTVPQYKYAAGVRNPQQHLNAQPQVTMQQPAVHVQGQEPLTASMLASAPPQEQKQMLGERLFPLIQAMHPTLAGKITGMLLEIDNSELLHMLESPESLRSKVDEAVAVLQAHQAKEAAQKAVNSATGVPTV

[23] = target: T5, Polyadenylate-binding protein 1; assay: PABP1 MLLE–PAM2 binding inhibitor potency, dose response, biochemical, fluorescence polarization, FITC-PAM2 peptide (AID 602259); format: functional; conditions: read-out: IC50_Mean
[24] = inhibitors of PGC1a acetylation in cells, dose response, cell-based, cherry-picked samples (AID 720514); format: functional;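 also: potency may reflect raised or lowered acetylation signal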
[25] = microbe, parasite or virus in culture; format: functional; conditions: Mycobacterium tuberculosis
[26] = target: Luciferin 4-monooxygenase (Photinus pyralis, UniProt P08659); assay: firefly luciferase enzyme inhibitors, dose response, biochemical, luminescence (AID 1891)
Luciferin 4-monooxygenase, sequence (P08659 whole entry): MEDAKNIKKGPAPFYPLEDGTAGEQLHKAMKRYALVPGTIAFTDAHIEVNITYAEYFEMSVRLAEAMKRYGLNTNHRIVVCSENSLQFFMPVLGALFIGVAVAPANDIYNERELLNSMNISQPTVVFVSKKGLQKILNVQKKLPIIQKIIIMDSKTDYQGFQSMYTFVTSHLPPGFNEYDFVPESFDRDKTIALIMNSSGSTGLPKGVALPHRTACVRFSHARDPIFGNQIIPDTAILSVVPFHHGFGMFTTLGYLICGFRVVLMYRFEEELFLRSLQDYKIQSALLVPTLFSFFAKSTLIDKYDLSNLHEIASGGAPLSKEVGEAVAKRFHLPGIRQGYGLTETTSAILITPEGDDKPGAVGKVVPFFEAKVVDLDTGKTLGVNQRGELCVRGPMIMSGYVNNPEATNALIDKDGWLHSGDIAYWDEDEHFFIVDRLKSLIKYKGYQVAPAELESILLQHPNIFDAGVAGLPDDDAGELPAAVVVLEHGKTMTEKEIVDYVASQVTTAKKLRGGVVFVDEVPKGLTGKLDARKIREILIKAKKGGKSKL

[27] = Luminescence Cell-Based Dose Confirmation HTS to Identify Inhibitors of Platelet Dense Granule Release. [Related pubchem assays: 1663 (Primary HTS), 1678 (Summary of Project)]; format: functional
[28] = Luminescence Cell-Based Dose Response HTS to Identify Activators of Luciferase Translation or Activity in H4 […] Cells. [Related pubchem assays: 1829 (Project Summary), 1814 (Primary HTS)]; format: functional
[29] = test system: H4; assay: Luminescence Cell-Based Dose Response HTS to Identify Activators of 5'UTR Stem-Loop Driven Prion Protein mRNA Translation in H4 Neuroglioblastoma Cells. [Related pubchem assays: 1829 (Project Summary), 1814 (Primary HTS)]; format: functional; conditions: Homo sapiens

Cc1cccc(-n2nnc(C(=O)NC3CCCc4ccccc43)c2N)c1 (stereo not given)
IC50 [1]: 7.05 µM (not active) | AC50 [2]: 7.94 µM (inconclusive) | AC50 [3]: 15.8 µM (inconclusive) | AC50 [4]: 1.12 µM (inconclusive) | AC50 [5]: inconclusive

Cc1cccc(OCCCSc2nc3ccc(C)cc3[nH]2)c1
IC50 [1]: 24.9 µM (not active) | EC50 [6]: 3.92 µM (active)

CCc1nnc(NS(=O)(=O)c2ccc(NC(=O)c3ccc(Br)cc3)cc2)s1
IC50 [7]: 4.45 µM (active) | IC50 [8]: 10 µM (active)

Nc1ccc2c3c(cccc13)C(=O)NC2=O
AC50 [4]: 3.16 µM (inconclusive) | AC50 [5]: inconclusive

CN(C)c1nc(-c2ccccc2C(F)(F)F)nc2ccccc12
AC50 [5]: inconclusive

CCN(CC)S(=O)(=O)c1ccc2oc(C(=O)NCc3ccc(F)cc3)c(C)c2c1
EC50 [6]: 3.18 µM (active)

CC(C)(C)n1nnnc1C(c1cccs1)N(Cc1ccc(Cl)cc1)CC1CCCO1 (stereo not given)
EC50 [9]: 2.41 µM (active) | EC50 [10]: > 60 µM (not active) | EC50 [6]: 8.19 µM (active)

Cc1ccc(SCCC(=O)NCCSCc2ccccc2C)cc1
EC50 [6]: 2.87 µM (active)

O=C(Nc1ccccc1C(=O)NCCCn1ccnc1)c1ccccc1
IC50 [7]: 5.59 µM (active) | IC50 [8]: 1.5 µM (active)

O=C(N/N=C(\Cc1ncc[nH]1)c1ccccc1)c1ccccc1
EC50 [11]: 12.7 µM (active) | EC50 [12]: > 350 µM (not active) | EC50 [13]: > 120 µM (not active) | EC50 [14]: > 120 µM (not active) | EC50 [15]: > 350 µM (not active)

Cc1cccc(-c2ccc([C@H]3[C@@H](CO)N4CCCCN(C(=O)c5cccnc5)C[C@@H]34)cc2)c1
AC50 [16]: 38.4 µM (active) | AC50 [17]: 20.8 µM (active) | AC50 [18]: 23.5 µM (active) | AC50 [19]: > 52 µM (inactive)

O=C(O)CCC(=O)Nc1ccc(C(=O)OCC(=O)c2ccc(Cl)cc2Cl)cc1
AC50 [20]: > 100 µM (inactive)

CCN(CC)S(=O)(=O)c1cc(C(=O)OCC(=O)Nc2cccc(Br)c2)ccc1F
AC50 [20]: 6.81 µM (active)

CCNC(=O)c1ccc(-n2nc(C(F)(F)F)c3c2CCCC3)cc1
EC50 [11]: 18.1 µM (active) | EC50 [13]: 41.9 µM (active) | EC50 [14]: > 120 µM (not active) | AC50 [2]: 8.91 µM (inconclusive) | AC50 [3]: 25.1 µM (inconclusive) | AC50 [5]: inconclusive

Cc1ccc(N2CCN(C(=O)CCc3nc4ccccc4[nH]3)CC2)c(C)c1
CC50 [21]: 13.6 µM (active) | EC50 [6]: 3.27 µM (active)

COC(=O)Cn1c(CN2CCN(c3ccc(F)cc3)CC2)nc2c1c(=O)n(C)c(=O)n2C
IC50 [7]: 3.59 µM (active) | IC50 [8]: 1.15 µM (active)

Cc1ccccc1NS(=O)(=O)c1cc(C(=O)Nc2ccccc2-c2ccccc2)ccc1Cl
EC50 [6]: 3.95 µM (active)

Cc1ccc(N=C(S)C2=C(O)c3sccc3N(C)S2(=O)=O)cc1
IC50 [22]: > 66 µM (inactive) | IC50 [23]: > 66 µM (inactive) | AC50 [20]: > 100 µM (inactive)

COc1ccc(C#Cc2ccc([C@H]3[C@@H](CO)N4CCCCN(C(=O)Nc5ccc(F)cc5)C[C@H]34)cc2)cc1
AC50 [24]: 13.9 µM (active)

COc1cccc(NC(=O)C2CCN(Cc3cnn(-c4ccccc4)c3-n3cccc3)CC2)c1
CC50 [25]: 14.6 µM (active) | EC50 [6]: 2.29 µM (active)

Cc1nn2c(NCCOCCO)c3c(nc2c1-c1ccccc1)CCCC3
IC50 [7]: 3.43 µM (active) | IC50 [8]: 11.2 µM (active)

Cn1c(=O)c(C#N)c(-c2ccc(F)cc2)c2cc(C(=O)c3cc(Cl)cc(Cl)c3O)cnc21
IC50 [7]: 6.95 µM (active) | IC50 [8]: 7.08 µM (active)

COc1ccc(-c2cc(-c3ccccc3)no2)cc1
EC50 [26]: 0.895 µM (active) | EC50 [27]: 10.3 µM (active) | AC50 [16]: 45.1 µM (active) | AC50 [17]: 5.01 µM (active) | AC50 [18]: 3.84 µM (active) | AC50 [19]: > 52 µM (inactive)

Cc1cccc(N2CCN(c3ccc(N4C(=O)CCCC4=O)cc3[N+](=O)[O-])CC2C)c1 (stereo not given)
EC50 [12]: > 350 µM (not active) | EC50 [15]: > 350 µM (not active)

CN1C(=C2C(=O)OC(C)(C)OC2=O)Sc2ccccc21
EC50 [28]: 0.122 µM (active) | EC50 [29]: > 120 µM (not active) | AC50 [5]: inconclusive

Cc1nccn1CC1CCc2c(c3ccccc3n2C)C1=O (stereo not given)
IC50 [7]: 1.67 µM (active) | IC50 [8]: 1.35 µM (active)

C/C(=N\NC(=O)Cc1ccc(Br)cc1)c1cccnc1
EC50 [12]: > 350 µM (not active) | EC50 [15]: 36.3 µM (active)

Cc1sc[n+](CC(=O)c2ccc(Br)cc2)c1C
IC50 [7]: 8.46 µM (active) | IC50 [8]: 3.76 µM (active)

COc1cc(Br)cc2cc(C(=O)NCC3CCCO3)c(=O)oc12 (stereo not given)
AC50 [3]: 3.55 µM (inconclusive) | AC50 [5]: inconclusive
